# Measured values as given in ChEMBL document CHEMBL3046164, “A facile synthesis of some 3-cyano-1,4,6-trisubstituted-2(1H)-pyridinones and their biological evaluation as anticancer agents” (2011).
# Legend:
# Type in all cases: functional
# [1] = system: CCRF-CEM; test: Growth inhibition of Homo sapiens (human) CCRF-CEM cells at 10 uM after 48 hr by SRB assay; settings: read-out: GI
# [2] = system: HL-60(TB); test: Cytotoxicity against Homo sapiens (human) HL-60(TB) cells after 48 hr by SRB assay; settings: HL-60, 48 h
# [3] = system: BT-549; test: Cytotoxicity against Homo sapiens (human) BT549 cells after 48 hr by SRB assay; settings: BT-549, 48 h
# [4] = system: HOP-62; test: Growth inhibition of Homo sapiens (human) HOP62 cells at 10 uM after 48 hr by SRB assay; settings: HOP-62, 48 h, read-out: GI
# [5] = system: LOX IMVI; test: Growth inhibition of Homo sapiens (human) LOXIMVI cells at 10 uM after 48 hr by SRB assay; settings: read-out: GI
# [6] = system: UO-31; test: Cytotoxicity against Homo sapiens (human) UO31 cells after 48 hr by SRB assay; settings: UO-31, 48 h
# [7] = system: MDA-MB-231; test: Cytotoxicity against Homo sapiens (human) MDA-MB-231 cells after 48 hr by SRB assay; settings: MDA-MB-231, 48 h
# [8] = system: A498; test: Cytotoxicity against Homo sapiens (human) A498 cells after 48 hr by SRB assay; settings: A498, 48 h
# [9] = system: HOP-62; test: Cytotoxicity against Homo sapiens (human) HOP62 cells after 48 hr by SRB assay; settings: HOP-62, 48 h
# [10] = system: SR; test: Cytotoxicity against Homo sapiens (human) SR cells after 48 hr by SRB assay
# [11] = system: U-251; test: Growth inhibition of Homo sapiens (human) U251 cells at 10 uM after 48 hr by SRB assay; settings: U-251, 48 h, read-out: GI
# [12] = system: EKVX; test: Cytotoxicity against Homo sapiens (human) EKVX cells after 48 hr by SRB assay
# [13] = system: SF-295; test: Growth inhibition of Homo sapiens (human) SF295 cells at 10 uM after 48 hr by SRB assay; settings: SF-295, 48 h, read-out: GI
# [14] = system: SF-539; test: Cytotoxicity against Homo sapiens (human) SF539 cells after 48 hr by SRB assay; settings: SF-539, 48 h
# [15] = system: HCC 2998; test: Cytotoxicity against Homo sapiens (human) HCC2998 cells after 48 hr by SRB assay; settings: HCC 2998, 48 h
# [16] = system: 786-0; test: Growth inhibition of Homo sapiens (human) 786-0 cells at 10 uM after 48 hr by SRB assay; settings: 786-0, 48 h, read-out: GI
# [17] = system: OVCAR-4; test: Cytotoxicity against Homo sapiens (human) OVCAR4 cells after 48 hr by SRB assay; settings: OVCAR-4, 48 h
# [18] = system: EKVX; test: Growth inhibition of Homo sapiens (human) EKVX cells at 10 uM after 48 hr by SRB assay; settings: read-out: GI
# [19] = system: CAKI-1; test: Growth inhibition of Homo sapiens (human) CAKI-1 cells at 10 uM after 48 hr by SRB assay; settings: CAKI-1, 48 h, read-out: GI
# [20] = system: SK-MEL-5; test: Growth inhibition of Homo sapiens (human) SK-MEL-5 cells at 10 uM after 48 hr by SRB assay; settings: SK-MEL-5, 48 h, read-out: GI
# [21] = system: T47D; test: Cytotoxicity against Homo sapiens (human) T47D cells after 48 hr by SRB assay
# [22] = system: RPMI-8226; test: Cytotoxicity against Homo sapiens (human) RPMI8226 cells after 48 hr by SRB assay; settings: Homo sapiens, RPMI-8226, 48 h
# [23] = system: HOP-92; test: Cytotoxicity against Homo sapiens (human) HOP92 cells after 48 hr by SRB assay; settings: HOP-92, 48 h
# [24] = system: OVCAR-3; test: Cytotoxicity against Homo sapiens (human) OVCAR3 cells after 48 hr by SRB assay; settings: OVCAR-3, 48 h
# [25] = system: IGROV-1; test: Cytotoxicity against Homo sapiens (human) IGROV1 cells after 48 hr by SRB assay; settings: IGROV-1, 48 h
# [26] = system: MDA-MB-435; test: Growth inhibition of Homo sapiens (human) MDA-MB-435 cells at 10 uM after 48 hr by SRB assay; settings: MDA-MB-435, 48 h, read-out: GI
# [27] = system: M14; test: Growth inhibition of Homo sapiens (human) M14 cells at 10 uM after 48 hr by SRB assay; settings: M14, 48 h, read-out: GI
# [28] = system: A549; test: Growth inhibition of Homo sapiens (human) A549 cells at 10 uM after 48 hr by SRB assay; settings: A549, 48 h, read-out: GI
# [29] = system: RPMI-8226; test: Growth inhibition of Homo sapiens (human) RPMI8226 cells at 10 uM after 48 hr by SRB assay; settings: RPMI-8226, 48 h, read-out: GI
# [30] = system: SNB-75; test: Growth inhibition of Homo sapiens (human) SNB75 cells at 10 uM after 48 hr by SRB assay; settings: SNB-75, 48 h, read-out: GI
# [31] = system: SNB-75; test: Cytotoxicity against Homo sapiens (human) SNB75 cells after 48 hr by SRB assay; settings: SNB-75, 48 h
# [32] = system: HL-60(TB); test: Growth inhibition of Homo sapiens (human) HL-60(TB) cells at 10 uM after 48 hr by SRB assay; settings: HL-60, 48 h, read-out: GI
# [33] = system: HCC 2998; test: Growth inhibition of Homo sapiens (human) HCC2998 cells at 10 uM after 48 hr by SRB assay; settings: HCC 2998, 48 h, read-out: GI
# [34] = system: HOP-92; test: Growth inhibition of Homo sapiens (human) HOP92 cells at 10 uM after 48 hr by SRB assay; settings: HOP-92, 48 h, read-out: GI
# [35] = system: A498; test: Growth inhibition of Homo sapiens (human) A498 cells at 10 uM after 48 hr by SRB assay; settings: A498, 48 h, read-out: GI
# [36] = system: UACC-62; test: Cytotoxicity against Homo sapiens (human) UACC62 cells after 48 hr by SRB assay; settings: UACC-62, 48 h
# [37] = system: CCRF-CEM; test: Cytotoxicity against Homo sapiens (human) CCRF-CEM cells after 48 hr by SRB assay
# [38] = system: K562; test: Growth inhibition of Homo sapiens (human) K562 cells at 10 uM after 48 hr by SRB assay; settings: K562, 48 h, read-out: GI
# [39] = system: COLO 205; test: Growth inhibition of Homo sapiens (human) COLO205 cells at 10 uM after 48 hr by SRB assay; settings: COLO 205, 48 h, read-out: GI
# [40] = system: SF-268; test: Cytotoxicity against Homo sapiens (human) SF268 cells after 48 hr by SRB assay; settings: SF-268, 48 h
# [41] = system: NCI-H460; test: Growth inhibition of Homo sapiens (human) NCI-H460 cells at 10 uM after 48 hr by SRB assay; settings: NCI-H460, 48 h, read-out: GI
compound,measurement,setting,value
Cn1cccc1-c1cc(-c2ccc(Br)cc2)n(C(=S)Nc2ccc(F)cc2)c(=O)c1C#N,inhibition of growth at 10 µM,[1],48.3%
same,GI50,[2],14.5 µM
same,GI50,[3],> 100 µM
same,inhibition of growth at 10 µM,[4],34.5%
same,inhibition of growth at 10 µM,[5],23%
same,GI50,[6],13.8 µM
same,LC50,[6],54.9 µM
same,TGI,[6],27.5 µM
same,GI50,[7],> 100 µM
same,GI50,[8],17.8 µM
same,GI50,[9],37.1 µM
same,GI50,[10],> 100 µM
same,inhibition of growth at 10 µM,[11],26.3%
same,GI50,[12],0.01 µM
same,TGI,[12],0.03 µM
same,inhibition of growth at 10 µM,[13],40.2%
same,GI50,[14],> 100 µM
same,GI50,[15],> 100 µM
same,inhibition of growth at 10 µM,[16],28.8%
same,GI50,[17],> 100 µM
same,inhibition of growth at 10 µM,[18],29.7%
same,inhibition of growth at 10 µM,[19],30.3%
same,inhibition of growth at 10 µM,[20],33.5%
same,GI50,[21],> 100 µM
same,GI50,[22],> 100 µM
same,GI50,[23],> 100 µM
same,GI50,[24],> 100 µM
same,GI50,[25],22.9 µM
same,inhibition of growth at 10 µM,[26],35.1%
same,inhibition of growth at 10 µM,[27],29.1%
same,inhibition of growth at 10 µM,[28],47.8%
same,inhibition of growth at 10 µM,[29],59.2%
same,inhibition of growth at 10 µM,[30],42.7%
same,GI50,[31],38 µM
same,inhibition of growth at 10 µM,[32],82.3%
same,inhibition of growth at 10 µM,[33],27.6%
same,inhibition of growth at 10 µM,[34],39.6%
same,inhibition of growth at 10 µM,[35],27.6%
same,GI50,[36],72.4 µM
same,GI50,[37],> 100 µM
same,inhibition of growth at 10 µM,[38],60%
same,inhibition of growth at 10 µM,[39],45.6%
same,GI50,[40],20.4 µM
same,inhibition of growth at 10 µM,[41],31.6%
